Experimental data taken from the supplement of paper PMC6045584.
± gives the standard deviation of the averaged measurements.

How the values were obtained:
EVEROLIMUS = compound: CO[C@H]1C[C@@H]2CC[C@@H](C)[C@@](O)(O2)C(=O)C(=O)N2CCCC[C@H]2C(=O)O[C@H]([C@H](C)C[C@@H]2CC[C@@H](OCCO)[C@H](OC)C2)CC(=O)[C@H](C)/C=C(\C)[C@@H](O)[C@@H](OC)C(=O)[C@H](C)C[C@H](C)/C=C/C=C/C=C/1C [EVEROLIMUS]; assay: surviving fraction relative to DMSO-only wells; higher = less growth inhibition; conditions: exposure time: 5 days
In short: (§1)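 Tumour cell lines were seeded in log phase at 250–500 cells per well into 384-well plates. Starting 24 hours later, inhibitors were present continuously for five days at 0.5, 1, 5, 10, 50, 100, 500 and 1000 nM. Surviving fraction, from CellTiter-Glo luminescence, is normalised to the median of DMSO-only wells. Three screens per line were required, with replicate Pearson r >0.7 and median Z' >0.3 for a line to be kept.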

[1] = compound: O=C(NOCC1CC1)c1ccc(F)c(F)c1Nc1ccc(I)cc1Cl; assay: as above; conditions: exposure time: 5 days
In short: as §1

| Test System | surviving fraction (EVEROLIMUS; 0.5 nM) | surviving fraction (EVEROLIMUS; 1 nM) | surviving fraction (EVEROLIMUS; 5 nM) | surviving fraction (EVEROLIMUS; 10 nM) | surviving fraction (EVEROLIMUS; 50 nM) | surviving fraction (EVEROLIMUS; 100 nM) | surviving fraction (EVEROLIMUS; 500 nM) | surviving fraction (EVEROLIMUS; 1000 nM) | surviving fraction ([1]; 0.5 nM) | surviving fraction ([1]; 1 nM) | surviving fraction ([1]; 5 nM) | surviving fraction ([1]; 10 nM) | surviving fraction ([1]; 50 nM) | surviving fraction ([1]; 100 nM) | surviving fraction ([1]; 500 nM) | surviving fraction ([1]; 1000 nM) |
| --- | --- | --- | --- | --- | --- | --- | --- | --- | --- | --- | --- | --- | --- | --- | --- | --- |
| OSHN BONE | 1.06 ± 0.014 | 1.03 ± 0.038 | 0.991 ± 0.035 | 0.983 ± 0.026 | 1.05 ± 0.054 | 1.06 ± 0.024 | 1.04 ± 0.057 | 1.06 ± 0.023 | 0.969 ± 0.026 | 0.983 ± 0.029 | 0.979 ± 0.019 | 0.988 ± 0.028 | 0.969 ± 0.03 | 0.989 ± 0.016 | 0.973 ± 0.018 | 1 ± 0.027 |
| PCI30 HEADNECK | 0.715 ± 0.07 | 0.6 ± 0.029 | 0.52 ± 0.027 | 0.508 ± 0.02 | 0.5 ± 0.051 | 0.508 ± 0.025 | 0.463 ± 0.03 | 0.468 ± 0.013 | 0.831 ± 0.027 | 0.849 ± 0.074 | 1.02 ± 0.078 | 1.01 ± 0.029 | 0.903 ± 0.015 | 0.758 ± 0.026 | 0.433 ± 0.036 | 0.402 ± 0.023 |
| RDES SOFT TISSUE | 1.09 ± 0.067 | 1.1 ± 0.099 | 1.11 ± 0.039 | 1.11 ± 0.087 | 0.981 ± 0.049 | 1.03 ± 0.12 | 1 ± 0.13 | 1.04 ± 0.063 | 1.33 ± 0.025 | 1.27 ± 0.071 | 1.32 ± 0.15 | 1.33 ± 0.093 | 1.28 ± 0.1 | 1.29 ± 0.085 | 1.37 ± 0.16 | 1.24 ± 0.082 |
| S68 BREAST | 0.839 ± 0.17 | 0.547 ± 0.045 | 0.479 ± 0.048 | 0.434 ± 0.049 | 0.356 ± 0.06 | 0.336 ± 0.043 | 0.26 ± 0.027 | 0.285 ± 0.024 | 0.917 ± 0.13 | 0.918 ± 0.21 | 0.901 ± 0.063 | 1.04 ± 0.27 | 0.801 ± 0.18 | 0.852 ± 0.13 | 0.669 ± 0.1 | 0.544 ± 0.096 |
| SAOS2 BONE | 1.13 ± 0.094 | 1.12 ± 0.054 | 1.0323 ± 0.00058 | 0.943 ± 0.044 | 0.909 ± 0.048 | 0.936 ± 0.025 | 0.826 ± 0.064 | 0.71 ± 0.049 | 1.08 ± 0.042 | 1.06 ± 0.032 | 1.04 ± 0.073 | 1.02 ± 0.018 | 1.02 ± 0.039 | 0.986 ± 0.078 | 0.885 ± 0.031 | 0.908 ± 0.047 |
| SCC36 HEADNECK | 1.07 ± 0.056 | 1.09 ± 0.14 | 1.03 ± 0.018 | 0.899 ± 0.061 | 1.008 ± 0.0093 | 0.909 ± 0.097 | 0.842 ± 0.031 | 0.733 ± 0.014 | 1.09 ± 0.037 | 1.15 ± 0.03 | 1.09 ± 0.035 | 1.18 ± 0.12 | 1.03 ± 0.042 | 0.956 ± 0.057 | 0.776 ± 0.082 | 0.78 ± 0.087 |
| SCC47 HEADNECK | 1.02 ± 0.053 | 1 ± 0.017 | 1.01 ± 0.053 | 0.95 ± 0.024 | 0.961 ± 0.053 | 0.961 ± 0.043 | 0.937 ± 0.16 | 0.843 ± 0.032 | 0.82 ± 0.063 | 0.844 ± 0.011 | 0.951 ± 0.013 | 0.973 ± 0.087 | 0.928 ± 0.089 | 0.907 ± 0.044 | 0.628 ± 0.058 | 0.658 ± 0.024 |
| SCC90 HEADNECK | 0.857 ± 0.032 | 0.816 ± 0.08 | 0.68 ± 0.048 | 0.643 ± 0.028 | 0.556 ± 0.019 | 0.563 ± 0.039 | 0.522 ± 0.063 | 0.5257 ± 0.0047 | 0.786 ± 0.13 | 0.773 ± 0.081 | 0.991 ± 0.098 | 0.847 ± 0.16 | 0.672 ± 0.045 | 0.495 ± 0.12 | 0.235 ± 0.036 | 0.193 ± 0.037 |
| SG27 HEADNECK | 1.1 ± 0.11 | 1.02 ± 0.019 | 0.978 ± 0.07 | 1.01 ± 0.046 | 0.871 ± 0.037 | 0.904 ± 0.11 | 0.92 ± 0.046 | 0.903 ± 0.08 | 0.918 ± 0.036 | 1.02 ± 0.075 | 0.973 ± 0.11 | 0.986 ± 0.075 | 1.02 ± 0.22 | 0.988 ± 0.017 | 1.13 ± 0.12 | 1.24 ± 0.19 |
| SG28 HEADNECK | 1.15 ± 0.028 | 1.09 ± 0.026 | 0.879 ± 0.063 | 0.8505 ± 0.005 | 0.809 ± 0.026 | 0.767 ± 0.0028 | 0.68 ± 0.0028 | 0.775 ± 0.0028 | 0.871 ± 0.049 | 1.03 ± 0.061 | 0.836 ± 0.024 | 0.932 ± 0.099 | 0.801 ± 0.06 | 0.781 ± 0.065 | 0.633 ± 0.023 | 0.616 ± 0.017 |
